Measured values as given in paper PMC5011342, “A high throughput drug screening assay to identify compounds that promote oligodendrocyte differentiation using acutely dissociated and purified oligodendrocyte precursor cells” (BMC Research Notes, 2016).
Counter-ions that a name gives are not always drawn. Like-named read-outs stand apart in the source and are kept apart here.

Experiments:
[1] = tested on: acutely dissociated and purified rat OPCs; experiment: Acute OL differentiation assay (MBP expression/cell, immunofluorescent image quantification); assay type: cell-based; details: for activation at 2 µM / activation at 10 µM / activation at 0.08 µM / activation at 0.4 µM: Rattus norvegicus; for activation at 0.08 µM: test compound at 0.08 uM, read-out: 0.08 uM (% Quet)
Outline: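 This acute differentiation assay used purified rat OPCs from postnatal day 6–7 pups, seeded into PDL/laminin-coated 96-well plates in differentiation medium lacking PDGF and FGF. Compounds were applied in quadruplicate after a 1–2 h preincubation at 37 °C, 10 % CO2, with 0.1 % DMSO negative and 40 ng/ml T3 positive controls in eight wells. After fixation on DIV4, anti-MBP immunofluorescence images yielded MBP expression/cell.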

expanded OPCs = experiment: cells; details: for viability at 0.1 µM / viability at 1 µM / viability at 10 µM: Rattus norvegicus, 72 h
Outline: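 Toxicity screen: compounds added at 0.1, 1 and 10 µM to PDGF-AA-expanded OPCs in 96-well plates, 3-day incubation at 37 °C, 10% CO2, then alamarBlue 1:10 for 4 h with fluorescence readout. Results set screening doses of 10/2, 2/0.4 or 0.4/0.08 µM.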

[2] = test compound at 2 uM, NCC library screen, sheet "All OLga data", relative to quetiapine, read-out: 2 uM (% Quet)
[3] = test compound at 10 uM, NCC library screen, sheet "All OLga data", relative to quetiapine, read-out: 10 uM (% Quet)
[4] = alamarBlue viability of expanded OPCs, compound at 0.1 µM, relative to DMSO control
[5] = alamarBlue viability of expanded OPCs, compound at 1 µM, relative to DMSO control
[6] = alamarBlue viability of expanded OPCs, compound at 10 µM, relative to DMSO control
[7] = NCC library screen, sheet "All OLga data", relative to quetiapine
[8] = 0.4 uM test compound, relative to quetiapine, sheet "All OLga data", read-out: OL differentiation, 0.4 uM (% Quet)
[9] = 2 uM test compound, relative to quetiapine, sheet "All OLga data", read-out: OL differentiation, 2 uM (% Quet)
[10] = test compound at 0.4 uM, NCC library screen, sheet "All OLga data", relative to quetiapine, read-out: 0.4 uM (% Quet)
[11] = read-out: 0.1 µM (% DMSO), alamarBlue viability, NCC library compound at 0.1 µM, sheet "All Tox data"
[12] = read-out: 1 µM (% DMSO), alamarBlue viability, NCC library compound at 1 µM, sheet "All Tox data"
[13] = read-out: 10 µM (% DMSO), alamarBlue viability, NCC library compound at 10 µM, sheet "All Tox data"
[14] = test compound at 2 uM, MBP expression relative to quetiapine, NCC library screen, sheet "All OLga data", read-out: 2 uM (% Quet)
[15] = 10 uM test compound, relative to quetiapine, sheet "All OLga data", read-out: OL differentiation, 10 uM (% Quet)
[16] = read-out: 0.1 µM (% DMSO), alamarBlue viability of expanded OPCs, compound at 0.1 µM, sheet All Tox data
[17] = read-out: 1 µM (% DMSO), alamarBlue viability of expanded OPCs, compound at 1 µM, sheet All Tox data
[18] = read-out: 10 µM (% DMSO), alamarBlue viability of expanded OPCs, compound at 10 µM, sheet All Tox data
[19] = test compound at 2 uM, NCC library screen, sheet "All OLga data", relative to quetiapine
[20] = test compound at 10 uM, NCC library screen, sheet "All OLga data", relative to quetiapine
[21] = alamarBlue viability, NCC library compound at 0.1 µM, sheet "All Tox data"
[22] = alamarBlue viability, NCC library compound at 1 µM, sheet "All Tox data"
[23] = alamarBlue viability, NCC library compound at 10 µM, sheet "All Tox data"
[24] = test compound at 0.4 uM, MBP expression relative to quetiapine, NCC library screen, sheet "All OLga data", read-out: 0.4 uM (% Quet)

## NS(=O)(=O)c1cc2c(cc1Cl)N=CNS2(=O)=O [Chlorothiazide]
[1]; [2]
  activation at 2 µM: -11.1%
[1]; [3]
  activation at 10 µM: -11.8%
Expanded OPCs; [4]
  0.1 µM (% DMSO): 88.9 % DMSO
Expanded OPCs; [5]
  1 µM (% DMSO): 90.2 % DMSO
Expanded OPCs; [6]
  10 µM (% DMSO): 89.0 % DMSO

## Oc1c(Cl)cc(Cl)c2cccnc12 [Chloroxine]
[1]; [7]
  activation at 0.08 µM: -87.1%
Expanded OPCs; [4]
  0.1 µM (% DMSO): 24.3 % DMSO
Expanded OPCs; [5]
  1 µM (% DMSO): 10.2 % DMSO
Expanded OPCs; [6]
  10 µM (% DMSO): 8.9 % DMSO

## CN(C)CCC(c1ccc(Cl)cc1)c1ccccn1 (centres unmarked) [Chlorpheniramine]
[1]; [8]
  activation at 0.4 µM: 8.7%
[1]; [9]
  activation at 2 µM: 10.5%
[1]; [10]
  activation at 0.4 µM: -6.7%
[1]; [2]
  activation at 2 µM: 7.6%
Expanded OPCs; [11]
  viability at 0.1 µM: 86.5%
Expanded OPCs; [12]
  viability at 1 µM: 77.7%
Expanded OPCs; [13]
  viability at 10 µM: 46.7%

## CN(C)CCCN1c2ccccc2Sc2ccc(Cl)cc21 [Chlorpromazine]
[1]; [7]
  activation at 0.08 µM: 7.4%
[1]; [10]
  activation at 0.4 µM: -44.8%
Expanded OPCs; [11]
  viability at 0.1 µM: 67.2%
Expanded OPCs; [12]
  viability at 1 µM: 38.2%
Expanded OPCs; [13]
  viability at 10 µM: 10.5%

## CCCNC(=O)NS(=O)(=O)c1ccc(Cl)cc1 [Chlorpropamide]
[1]; [2]
  activation at 2 µM: -27.8%
[1]; [3]
  activation at 10 µM: -19%
Expanded OPCs; [4]
  0.1 µM (% DMSO): 185.9 % DMSO
Expanded OPCs; [5]
  1 µM (% DMSO): 197.2 % DMSO
Expanded OPCs; [6]
  10 µM (% DMSO): 208.8 % DMSO

## NS(=O)(=O)c1cc(C2(O)NC(=O)c3ccccc32)ccc1Cl (centres unmarked) [Chlorthalidone]
[1]; [14]
  activation at 2 µM: -5.8%
[1]; test compound at 10 uM, MBP expression relative to quetiapine, NCC library screen, sheet "All OLga data", read-out: 10 uM (% Quet)
  activation at 10 µM: -2%
Expanded OPCs; [4]
  0.1 µM (% DMSO): 92.5 % DMSO
Expanded OPCs; [5]
  1 µM (% DMSO): 95.8 % DMSO
Expanded OPCs; [6]
  10 µM (% DMSO): 81.7 % DMSO

## CC1(C)C[C@@H]1C(=O)N/C(=C\CCCCSC[C@H](N)C(=O)O)C(=O)O [Cilastatin]
[1]; read-out: OL differentiation, 2 uM (% Quet)
  activation at 2 µM: -1.9%
[1]; read-out: OL differentiation, 10 uM (% Quet)
  activation at 10 µM: -4.3%
Expanded OPCs; read-out: 0.1 µM (% DMSO)
  viability at 0.1 µM: 96.8%
Expanded OPCs; read-out: 1 µM (% DMSO)
  viability at 1 µM: 95.5%
Expanded OPCs; read-out: 10 µM (% DMSO)
  viability at 10 µM: 89.5%

## CN/C(=N/CCSCc1nc[nH]c1C)NC#N [Cimetidine]
[1]; [2]
  activation at 2 µM: 2.9%
[1]; [3]
  activation at 10 µM: -11.1%
Expanded OPCs; [4]
  0.1 µM (% DMSO): 89.7 % DMSO
Expanded OPCs; [5]
  1 µM (% DMSO): 89.2 % DMSO
Expanded OPCs; [6]
  10 µM (% DMSO): 92.3 % DMSO

## CN(C)CCCSc1ccccc1NC(=O)/C=C/c1ccccc1 [Cinanserin]
[1]; [9]
  activation at 2 µM: 64.2%
[1]; [15]
  activation at 10 µM: 63.5%
Expanded OPCs; [16]
  viability at 0.1 µM: 80.3%
Expanded OPCs; [17]
  viability at 1 µM: 84.3%
Expanded OPCs; [18]
  viability at 10 µM: 74.7%

## COc1cc(N)c(Cl)cc1C(=O)NC1CCN(CCCOc2ccc(F)cc2)CC1OC (centres unmarked) [Cisapride]
[1]; [9]
  activation at 2 µM: 11.3%
[1]; [15]
  activation at 10 µM: 25.5%
Expanded OPCs; [16]
  viability at 0.1 µM: 80.4%
Expanded OPCs; [17]
  viability at 1 µM: 89%
Expanded OPCs; [18]
  viability at 10 µM: 73.6%

## Nc1nc(Cl)nc2c1ncn2[C@H]1C[C@H](O)[C@@H](CO)O1 [Cladribine]
[1]; [7]
  activation at 0.08 µM: -6.7%
[1]; [10]
  activation at 0.4 µM: -22.9%
Expanded OPCs; [11]
  viability at 0.1 µM: 41.2%
Expanded OPCs; [12]
  viability at 1 µM: 22.4%
Expanded OPCs; [13]
  viability at 10 µM: 10.4%

## NC(=NCc1ccc(Cl)cc1)SCCCc1cnc[nH]1 [Clobenpropit]
[1]; [10]
  activation at 0.4 µM: 7.2%
[1]; [2]
  activation at 2 µM: -2.7%
Expanded OPCs; [11]
  viability at 0.1 µM: 120%
Expanded OPCs; [12]
  viability at 1 µM: 107%
Expanded OPCs; [13]
  viability at 10 µM: 39.3%

## C[C@H]1C[C@H]2[C@@H]3CCC4=CC(=O)C=C[C@]4(C)[C@@]3(F)[C@@H](O)C[C@]2(C)[C@@]1(O)C(=O)CCl [Clobetasol]
[1]; [19]
  2 uM (% Quet): -30.9 % Quet
[1]; [20]
  10 uM (% Quet): -99.6 % Quet
Expanded OPCs; [21]
  0.1 µM (% DMSO): 124.1 % DMSO
Expanded OPCs; [22]
  1 µM (% DMSO): 133.0 % DMSO
Expanded OPCs; [23]
  10 µM (% DMSO): 121.5 % DMSO

## CC(C)/N=c1\cc2n(-c3ccc(Cl)cc3)c3ccccc3nc-2cc1Nc1ccc(Cl)cc1 [Clofazimine]
[1]; [7]
  activation at 0.08 µM: 0.25%
[1]; [10]
  activation at 0.4 µM: -57.8%
Expanded OPCs; [11]
  viability at 0.1 µM: 89.9%
Expanded OPCs; [12]
  viability at 1 µM: 45.9%
Expanded OPCs; [13]
  viability at 10 µM: 19%

## CCN(CC)CCOc1ccc(C(=C(Cl)c2ccccc2)c2ccccc2)cc1 [Clomiphene]
[1]; [24]
  activation at 0.4 µM: 51.5%
Expanded OPCs; [4]
  0.1 µM (% DMSO): 172.3 % DMSO
Expanded OPCs; [5]
  1 µM (% DMSO): 59.8 % DMSO
Expanded OPCs; [6]
  10 µM (% DMSO): 8.1 % DMSO

## CN(C)CCCN1c2ccccc2CCc2ccc(Cl)cc21 [Clomipramine]
[1]; MBP expression relative to quetiapine, NCC library screen, sheet "All OLga data"
  activation at 0.08 µM: 18.5%
[1]; [24]
  activation at 0.4 µM: -59.9%
Expanded OPCs; [4]
  0.1 µM (% DMSO): 76.2 % DMSO
Expanded OPCs; [5]
  1 µM (% DMSO): 37.7 % DMSO
Expanded OPCs; [6]
  10 µM (% DMSO): 8.7 % DMSO

## Clc1cccc(Cl)c1N=C1NCCN1 [Clonidine hydrochloride]
[1]; [9]
  activation at 2 µM: -12.5%
[1]; [15]
  activation at 10 µM: -14.3%
Expanded OPCs; [11]
  viability at 0.1 µM: 91.9%
Expanded OPCs; [12]
  viability at 1 µM: 84.3%
Expanded OPCs; [13]
  viability at 10 µM: 77.2%

## COC(=O)[C@H](c1ccccc1Cl)N1CCc2sccc2C1 [Clopidogrel]
[1]; [24]
  activation at 0.4 µM: -4%
[1]; [14]
  activation at 2 µM: -15%
Expanded OPCs; [4]
  0.1 µM (% DMSO): 103.8 % DMSO
Expanded OPCs; [5]
  1 µM (% DMSO): 94.8 % DMSO
Expanded OPCs; [6]
  10 µM (% DMSO): 75.7 % DMSO

## Clc1ccccc1C(c1ccccc1)(c1ccccc1)n1ccnc1 [Clotrimazole]
[1]; [8]
  activation at 0.4 µM: 43.9%
[1]; [9]
  activation at 2 µM: 171%
Expanded OPCs; [16]
  viability at 0.1 µM: 82.3%
Expanded OPCs; [17]
  viability at 1 µM: 125%
Expanded OPCs; [18]
  viability at 10 µM: 54.9%

## CN1CCN(C2=Nc3cc(Cl)ccc3Nc3ccccc32)CC1 [Clozapine]
[1]; [24]
  activation at 0.4 µM: -5.6%
[1]; [14]
  activation at 2 µM: -39.3%
Expanded OPCs; [4]
  0.1 µM (% DMSO): 78.7 % DMSO
Expanded OPCs; [5]
  1 µM (% DMSO): 61.3 % DMSO
Expanded OPCs; [6]
  10 µM (% DMSO): 24.6 % DMSO

## C[C@]12C[C@H](O)[C@H]3[C@@H](CCC4=CC(=O)CC[C@@]43C)[C@@H]1CC[C@@H]2C(=O)CO [Corticosterone]
[1]; [2]
  activation at 2 µM: 20.1%
[1]; [3]
  activation at 10 µM: 17.1%
Expanded OPCs; [11]
  viability at 0.1 µM: 105%
Expanded OPCs; [12]
  viability at 1 µM: 108%
Expanded OPCs; [13]
  viability at 10 µM: 102%

## C[C@]12CCC(=O)C=C1CC[C@@H]1[C@@H]2[C@@H](O)C[C@@]2(C)[C@H]1CC[C@]2(O)C(=O)COC(=O)CCC(=O)O [Cortisol succinate]
[1]; [19]
  2 uM (% Quet): 3.6 % Quet
[1]; [20]
  10 uM (% Quet): 21.7 % Quet
Expanded OPCs; [21]
  0.1 µM (% DMSO): 123.4 % DMSO
Expanded OPCs; [22]
  1 µM (% DMSO): 127.0 % DMSO
Expanded OPCs; [23]
  10 µM (% DMSO): 132.7 % DMSO
